Experimental data published in patent US12473537B2, “Three-dimensional cell culture, devices, and use thereof” (THE BROAD INSTITUTE, INC., priority 2020, dated 2025).

Key:
Format in all cases: cell-based, human
Notch signaling [1] = experiment: Notch inhibition in pancreatic progenitor cells in Disque platform (DP), qRT-PCR gene expression; settings: 10 μM, 4 days, cells cultured in DP
Description: (§1) Next, Applicant further examined whether other junction signaling pathways critical for β-cell differentiation, such as the Notch signaling pathway, could be supported in the DP, as Notch inhibition in pancreatic progenitor cells is known to promote differentiation into the endocrine lineage and β-cell production. To measure this in the DP, Applicant supplemented the differentiation protocol of pancreatic progenitor cells with Notch inhibitor (NI) [γ-secretase inhibitor, N—[N-(3,5-Difluorophenacetyl)-L-alanyl]-S-phenylglycine t-butyl ester (DAPT) (10 μM)] and examined the cells at the end of pancreatic progenitor cells (stage 4 day 5 (S4d5)) by immunocytochemistry and gene expression analysis (FIGS. 8A-8D). […]
(§2) Compound treatment. […] For the dose-cytotoxicity study, cell viability was measured by AlamarBlue™ assay following the manufacturer's protocol (Invitrogen, Carlsbad, CA, USA).
(§3) Gene Expression Analysis. […] The RNA concentration was determined by measuring absorbance at 260 nm using a spectrophotometer. […] The profiles of gene expression in SC β-cells were quantified for each target (human E-cad, CX-36, ZnT8, Pdx-1, Nkx6.1, Insulin, and glyceraldehyde 3-phosphate dehydrogenase (GAPDH), QuantiTect primary assay). The expression level of target genes was determined by the comparative Ct method, whereby the target is normalized to the endogenous reference (GAPDH) 40. […]

[2] = tested on: pancreatic progenitor cells; experiment: Notch inhibition in DP, immunocytochemical staining for Pdx-1 and Nkx6.1; settings: 10 μM, S4d5
Description: Next, Applicant further examined whether other junction signaling pathways critical for β-cell differentiation, such as the Notch signaling pathway, could be supported in the DP, as Notch inhibition in pancreatic progenitor cells is known to promote differentiation into the endocrine lineage and β-cell production. To measure this in the DP, Applicant supplemented the differentiation protocol of pancreatic progenitor cells with Notch inhibitor (NI) [γ-secretase inhibitor, N—[N-(3,5-Difluorophenacetyl)-L-alanyl]-S-phenylglycine t-butyl ester (DAPT) (10 μM)] and examined the cells at the end of pancreatic progenitor cells (stage 4 day 5 (S4d5)) by immunocytochemistry and gene expression analysis (FIGS. 8A-8D). […] Upon establishing the differentiation capabilities of the DP, Applicant then reasoned whether differentiated SC β cells also elicited proper insulin secretion functionality. The DP also supported insulin secretion from SC β cells in response to glucose stimulation, and similar secretion indices were noted between DP and SF (FIG. 3J).
Compound treatment. Cells were seeded into the DP and incubated with their respective media as outlined in the section above and allowed to settle for 24 hours (day 1). […] For the dose-cytotoxicity study, cell viability was measured by AlamarBlue™ assay following the manufacturer's protocol (Invitrogen, Carlsbad, CA, USA). […]

Notch signaling [3] = experiment: Notch inhibition in 2D culture, Hes1 gene expression; settings: 10 μM
Description: as §1, §2, §3

SC β cells [4] = experiment: Dose-cytotoxicity study, AlamarBlue assay; settings: 0.032~500 μM
Procedure: Compound treatment. […] For compound treatment (ZnPDs and small molecule cargos), the media were replaced with new media supplemented with prodrug at different concentrations on day 3 and day 6 for a total treatment of 6 days. Cell analyses was performed after 7 days in culture. […] For the dose-cytotoxicity study, cell viability was measured by AlamarBlue™ assay following the manufacturer's protocol (Invitrogen, Carlsbad, CA, USA).
Cell viability test. To determine the viability of SC β-cells in the DP and SF, a Live/Dead Viability and Cytotoxicity Assay Kit (AlamarBlue™, Invitrogen) were used according to the manufacturer's instructions.

SC β cells [5] = experiment: Proliferation of SC β cells in DP (EdU or Ki67, flow cytometry)
Procedure: Applicant then compared ZnPD6 and harmine over the range of 0.625 to 20 μM based on the percentage of proliferating mature SC β cells using the c-peptide/EdU co-positive metric, wherein EdU is a proliferation marker that identifies cells undergoing DNA replication in the S phase (FIG. 5D). […] Despite releasing the same drug following ZnPD cleavage, Applicant were interested in determining what caused the difference in cytotoxicity and proliferation between ZnPD6 and unmodified harmine. Applicant then examined harmine and ZnPD6 at their optimal concentrations for proliferation, 10 μM and 20 μM, respectively.
Compound treatment. Cells were seeded into the DP and incubated with their respective media as outlined in the section above and allowed to settle for 24 hours (day 1). For compound treatment (ZnPDs and small molecule cargos), the media were replaced with new media supplemented with prodrug at different concentrations on day 3 and day 6 for a total treatment of 6 days. Cell analyses was performed after 7 days in culture. For targeting study with ZnPD4, cells were treated with ZnPD4 for 2 hours. […] For the dose-cytotoxicity study, cell viability was measured by AlamarBlue™ assay following the manufacturer's protocol (Invitrogen, Carlsbad, CA, USA).
Flow cytometry. […] Cells were analyzed using a BD FACSAria™ II flow cytometer (BD Biosciences, Franklin Lakes, NJ, USA). […]

DYRKIA = experiment: NFAT1 nuclear translocation as readout for DYRKIA inhibition
Procedure: Immunocytochemical staining. The Immunofluorescent staining was performed as previously described in the Flow cytometry section. The additional primary antibodies for immunocytochemical staining were used: rabbit polyclonal anti-NFAT1 (1:500, ab244310, Abcam, Cambridge, MA, USA), mouse monoclonal anti-E-cadherin (1:500, Abcam) and rabbit polyclonal anti-connexin 36 (1:500, Abcam). Secondary antibodies were stained using previously described antibodies noted within the flow cytometry method. Cells were then counter-stained with 4′, 6-Diamidino-2-phenylindole (DAPI, MilliporeSigma, Burlington, MA, USA) or 2,5′-Bi-1H-benzimidazole (Hoechst, Invitrogen). HTS imaging was performed using the Opera Phenix™ High Content Screening System (PerkinElmer, Waltham, MA, USA). Fluorescent and bright-field imaging were performed using the Eclipse TE2000-U (Nikon, Tokyo, Japan). Confocal imaging and z-stack 3D reconstruction were performed using LSM 800 with Airyscan (Zeiss, Oberkochen, Germany). Analysis was performed using ImageJ (NIH) and Adobe Photoshop (Adobe, San Jose, CA, USA) software.

| Compound | increase in Pdx-1 expression (Notch signaling [1]; S4d5, vs control) | decrease in hairy and enhancer of split-1 (Hes1) expression (Notch signaling [1]; vs control) | Pdx-1-positive progenitor cells after Notch inhibition [2] | Hes1 expression response to Notch inhibition (Notch signaling [3]) | concentration above which a cytotoxic effect is seen (SC β cells [4]) | population of proliferating monohormonal SC β cells (C-peptide+GCG-EdU+) (SC β cells [5]; DP, flow cytometry, compared to DMSO control or negative control) | optimal concentration for proliferation (SC β cells [5]; SC β cells in DP) | NFAT1 nuclear translocation over time, in words (DYRKIA; FIG. 5H) | NFAT1 nuclear translocation (DYRKIA; at 24 hours) | NFAT1 nuclear translocation (DYRKIA; value before the decrease) |
| --- | --- | --- | --- | --- | --- | --- | --- | --- | --- | --- |
| C[C@H](NC(=O)Cc1cc(F)cc(F)c1)C(=O)N[C@H](C(=O)OC(C)(C)C)c1ccccc1 [DAPT, N—[N-(3,5-Difluorophenacetyl)-L-alanyl]-S-phenylglycine t-butyl ester] | 80% | 71% | significantly increased | not responsive |  |  |  |  |  |  |
| COc1ccc2c(c1)[nH]c1c(C)nccc12 [harmine] |  |  |  |  | over 10 μM | statistically significant increase | 10 µM | decreased NFAT1 nuclear translocation after 4 hours | 15% | 26% |
